Results as given in patent US20090081194A1, “COMPOSITIONS AND METHODS FOR REDUCING RISK OF DEVELOPMENT, OR SEVERITY, OF INAPPROPRIATE IMMUNE RESPONSE IN EYES” (priority 2007, published 2009).

Assays:
[1] = system: HL-60, a neutrophil-like cell line; experiment: TLR ligand-induced CXCL8 (IL-8) release, HL-60 cell line; assay type: cell-based, human; conditions: inhibitor 1 hour before, FIG. 7
From the text: (§1) Three human cell lines representative of immune responsive cells of the ocular surface (HCEL, a human corneal epithelial cell line representative of cells present on the ocular surface; HL-60, a neutrophil-like cell line representative of neutrophils present in the tear layer, especially in the closed eye; and U937, a macrophage cell line representative of dendritic cells of the cornea, especially of those at the limbus) were exposed to various concentrations of compositions of the present invention containing the inhibitory ODN TTAGGG (InvivoGen, San Diego, Calif.) and vitamin D (1α,25-Dihydroxyvitamin D3, Sigma-Aldrich, St. Louis, Mo.) and control compositions containing prednisolone (1,4-Pregnadiene-11β,17α,21-triol-3,20-dione, Sigma-Aldrich, St. Louis, Mo.) for 1 hour prior to activation by the TLR ligand Pam3Cys for 6 hour, flagellin (flagellin purified from Salmonella typhimurium, InvivoGen, San Diego, Calif.) for 24 hr, or the stimulatory CpG type B ODN 2006 (Invivogen, San Diego, Calif.) for 24 hours. After incubation at 37° C., supernates were collected for ELISA assay (R&D Systems, Minneapolis, Minn.) for the pro-inflammatory cytokine CXCL8 (“IL-8”). Both the inhibitory ODN TTAGGG and vitamin D inhibited cytokine response to TLR ligand activation of each cell line in an inhibitor-specific manner. […] Inhibition of the stimulatory ODN CpGB ODN 2006 was only tested with inhibitory ODN TTAGGG on U937 cells.

[2] = system: HCEL, a human corneal epithelial cell line; experiment: TLR ligand-induced CXCL8 (IL-8) release, HCEL cell line; assay type: cell-based; conditions: inhibitor 1 hour before, FIG. 7
From the text: as §1

[3] = system: U937, a macrophage cell line; experiment: TLR ligand-induced CXCL8 (IL-8) release, U937 cell line; assay type: cell-based, human; conditions: FIG. 7
From the text: as §1

TLR9 [4] = target: T1, TLR9 (Homo sapiens, UniProt Q9NR96); conditions: Bhattacharjee et al. 2006; Macfarlane et al. 1998; cited from earlier work
T1 sequence (Q9NR96 26-1032): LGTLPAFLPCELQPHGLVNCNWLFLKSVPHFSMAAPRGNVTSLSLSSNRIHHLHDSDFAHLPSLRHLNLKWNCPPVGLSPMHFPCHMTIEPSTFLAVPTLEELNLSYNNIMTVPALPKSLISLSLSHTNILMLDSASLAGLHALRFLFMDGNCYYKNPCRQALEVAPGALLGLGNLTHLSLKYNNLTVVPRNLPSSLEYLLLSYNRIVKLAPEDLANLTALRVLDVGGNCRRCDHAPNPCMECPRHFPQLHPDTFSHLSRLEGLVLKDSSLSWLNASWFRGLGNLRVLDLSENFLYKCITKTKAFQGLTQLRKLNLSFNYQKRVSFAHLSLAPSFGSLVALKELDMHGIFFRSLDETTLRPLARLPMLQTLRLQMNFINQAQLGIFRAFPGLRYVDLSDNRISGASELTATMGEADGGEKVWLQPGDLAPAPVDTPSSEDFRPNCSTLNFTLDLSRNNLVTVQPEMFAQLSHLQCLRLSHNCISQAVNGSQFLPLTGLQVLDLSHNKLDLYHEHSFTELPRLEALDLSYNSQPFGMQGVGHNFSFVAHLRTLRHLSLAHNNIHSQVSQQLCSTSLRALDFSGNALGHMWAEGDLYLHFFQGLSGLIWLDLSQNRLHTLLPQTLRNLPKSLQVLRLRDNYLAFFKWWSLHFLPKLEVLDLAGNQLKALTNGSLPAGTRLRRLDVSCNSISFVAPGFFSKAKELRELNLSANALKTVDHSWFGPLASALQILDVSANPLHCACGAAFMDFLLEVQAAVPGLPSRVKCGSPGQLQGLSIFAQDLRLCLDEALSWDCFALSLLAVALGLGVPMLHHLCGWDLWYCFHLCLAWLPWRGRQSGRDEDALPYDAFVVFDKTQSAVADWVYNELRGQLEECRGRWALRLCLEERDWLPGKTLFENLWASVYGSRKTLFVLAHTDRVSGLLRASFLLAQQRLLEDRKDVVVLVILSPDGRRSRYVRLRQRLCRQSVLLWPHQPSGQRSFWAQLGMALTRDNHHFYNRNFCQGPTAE

TLR2 = conditions: monocytes; K. Sadeghi et al. 2006; cited from earlier work
TLR4 = conditions: monocytes; K. Sadeghi et al. 2006; cited from earlier work
U937 cells = conditions: H. Mitsuzawa et al. 2006; cited from earlier work
NF-κB = conditions: LPS-elicited; H. Mitsuzawa et al. 2006; cited from earlier work
TLR9 [5] = target: T1, TLR9; conditions: Gursel et al. 2003; Stunz et al. 2002; cited from earlier work
[6] = flagellin activation 24 hr, inhibitor 1 hour before

Molecule: C[C@]12C=CC(=O)C=C1CC[C@@H]1[C@@H]2[C@@H](O)C[C@@]2(C)[C@H]1CC[C@]2(O)C(=O)CO [Prednisolone, 1,4-Pregnadiene-11β,17α,21-triol-3,20-dione]
- CXCL8 (IL-8) cytokine response ([1]; Pam3Cys activation 6 hour): inhibited
- CXCL8 (IL-8) cytokine response ([1]; flagellin activation 24 hr): inhibited
- CXCL8 (IL-8) cytokine response ([2]; Pam3Cys activation 6 hour): inhibited
- CXCL8 (IL-8) cytokine response ([2]; flagellin activation 24 hr): inhibited
- CXCL8 (IL-8) cytokine response [3, 6]: inhibited

Molecule: Nc1c2ccccc2nc2ccccc12 [9-aminoacridine]
- immunostimulatory action of CpG ODN (TLR9 [4]): block the immunostimulatory action of CpG ODN

Molecule: CCN(CC)CCCC(C)Nc1ccnc2cc(Cl)ccc12 (stereo not drawn) [chloroquine]
- immunostimulatory action of CpG ODN (TLR9 [4]): block the immunostimulatory action of CpG ODN

Molecule: C=C1/C(=C\C=C2/CCC[C@]3(C)[C@@H]([C@H](C)CCCC(C)(C)O)CC[C@@H]23)C[C@@H](O)C[C@@H]1O [Vitamin D, 1α,25-Dihydroxyvitamin D3]
- expression of TLR2 (TLR2): diminishes the expression
- CXCL8 (IL-8) cytokine response ([1]; flagellin activation 24 hr): reduced the cytokine response
- expression of TLR4 (TLR4): diminishes the expression
- CXCL8 (IL-8) cytokine response ([2]; Pam3Cys activation 6 hour): reduced the cytokine response
- CXCL8 (IL-8) cytokine response [3, 6]: reduced the cytokine response

Molecule: CCN(CCO)CCCC(C)Nc1ccnc2cc(Cl)ccc12 (stereo not drawn) [hydroxychloroquine]
- immunostimulatory action of CpG ODN (TLR9 [4]): block the immunostimulatory action of CpG ODN

Molecule: Nc1ccnc2ccccc12 [4-aminoquinoline]
- immunostimulatory action of CpG ODN (TLR9 [4]): block the immunostimulatory action of CpG ODN

Molecule: sTLR4: soluble form of a CD14-binding extracellular domain of TLR4
- LPS-elicited IL-8 release (U937 cells): effective in inhibiting
- NF-κB activation (NF-κB): effective in inhibiting

Molecule: TTAGGG (listed as Homo sapiens) [ODN TTTAGGG]
- CXCL8 (IL-8) cytokine response ([1]; Pam3Cys activation 6 hour): reduced the cytokine response
- CXCL8 (IL-8) cytokine response ([2]; Pam3Cys activation 6 hour): reduced the cytokine response
- CXCL8 (IL-8) cytokine response ([3]; Pam3Cys activation 6 hour, inhibitor 1 hour before): reduced the cytokine response
- CXCL8 (IL-8) cytokine response ([3]; stimulatory CpG type B ODN 2006 activation 24 hours): reduced the cytokine response
- colocalization of CpG DNA with TLR9 within endosomal vesicles (TLR9 [5]): block the colocalization

Molecule: CCN(CC)CCCC(C)Nc1c2ccc(Cl)cc2nc2ccc(OC)cc12 (stereo not drawn) [quinacrine]
- immunostimulatory action of CpG ODN (TLR9 [4]): block the immunostimulatory action of CpG ODN

B1: sMD-2: soluble form of MD-2 (protein, UniProt Q9Y6Y9 19-160, looked up)
Lymphocyte antigen 96: QKQYWVCNSSDASISYTYCDKMQYPISINVNPCIELKRSKGLLHIFYIPRRDLKQLYFNLYITVNTMNLPKRKEVICRGSDDDYSFCRALKGETVNTTISFSFKGIKFSKGKYKCVVEAISGSPEEMLFCLEFVILHQPNSN
- LPS-elicited IL-8 release (U937 cells): effective in inhibiting
- NF-κB activation (NF-κB): effective in inhibiting
